The record followed here is patent US10407409B2, “6-(5-hydroxy-1H-pyrazol-1-yl)nicotinamide inhibitors of PHD” (Takeda Pharmaceutical Company Limited, priority 2013, dated 2019).

Experiment [1] concerns the target PHD2 enzyme (residues 181-417) (Homo sapiens (Human), UniProt Q9GZT9). In words: Inhibition of PHD enzyme (LC/MS peptide hydroxylation assay). The class given is biochemical. Particulars: PHD2 (residues 181-417) 5 nM, 60 min pre-incubation, -log(IC50), IC50 molar. In outline:
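PHD2 (5 nM final) preincubated with inhibitor 60 min at RT in 50 mM HEPES, 50 mM KCl, 0.5 mM TCEP, 2 uM FeCl2, 0.1 mg/ml BSA, pH 7.3. Reaction started with biotin-peptide (1 uM), 2-oxoglutarate (2 uM), ascorbate (1 mM), quenched at 60 min; hydroxylated product by LC/MS, reported as pIC50.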

Experiment [2] deals with HIF1a protein in H9c2 rat cardiomyocytes. In words: Cell-based HIF-alpha stabilization assay (inhibition of PHD in cells). The note with it: Rattus norvegicus, H9c2, 24 h, 24 hrs compound incubation, HIF1a protein by ELISA, read-out: Inhibition of PHD in cells (pEC50) (converted). In outline: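 Rat H9c2 cardiomyocytes, cultured 24 h, were treated 24 h with an 11-point serial dilution of compound. HIF1a in whole-cell lysates was quantified by ELISA as % of the maximal desferrioxamine response. EC50 came from curve fitting; EC50pos is the concentration reaching 50% of the desferrioxamine maximum.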

Sequence of PHD2 enzyme (residues 181-417) (Q9GZT9 181-417): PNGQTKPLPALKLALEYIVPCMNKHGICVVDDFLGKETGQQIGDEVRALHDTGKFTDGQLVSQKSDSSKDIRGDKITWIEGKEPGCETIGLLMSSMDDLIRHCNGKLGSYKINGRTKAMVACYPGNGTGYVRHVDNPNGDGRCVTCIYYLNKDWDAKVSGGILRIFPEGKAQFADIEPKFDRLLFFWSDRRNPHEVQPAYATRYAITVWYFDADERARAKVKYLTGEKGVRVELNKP

On to `CO[C@H](C)CCNC(=O)c1ccc(-n2ncc(-c3ccc(C#N)cc3C)c2O)nc1` [Example 371, (R)-6-(4-(4-cyano-2-methylphenyl)-5-hydroxy-1H-pyrazol-1-yl)-N-(3-methoxybutyl)nicotinamide], for which the “PHD Inhibition (pIC50)” value in experiment [1] is 8.20. For the same compound, the EC50 in experiment [2] was 0.832 µM.

On to `Cc1cc(C#N)ccc1-c1cnn(-c2ccc(C(=O)N3CCN(C)[C@@H](C)C3)cn2)c1O` [Example 372, (S)-4-(1-(5-(3,4-dimethylpiperazine-1-carbonyl)pyridin-2-yl)-5-hydroxy-1H-pyrazol-4-yl)-3-methylbenzonitrile], for which the “PHD Inhibition (pIC50)” value in experiment [1] is 8.26. In experiment [2], the EC50 is 0.832 µM.

In the case of `Cc1cc(C#N)ccc1-c1cnn(-c2ccc(C(=O)N3CCN(C4CCC4)CC3)cn2)c1O` [Example 373, 4-(1-(5-(4-cyclobutylpiperazine-1-carbonyl)pyridin-2-yl)-5-hydroxy-1H-pyrazol-4-yl)-3-methylbenzonitrile], the “PHD Inhibition (pIC50)” value in experiment [1] was 8.00. Moreover, the EC50 in experiment [2] is 1.2 µM.

For the compound `Cc1cc(C#N)ccc1-c1cnn(-c2ccc(C(=O)N3CCN(C4CC4)[C@H](C)C3)cn2)c1O` [Example 375, (R)-4-(1-(5-(4-cyclopropyl-3-methylpiperazine-1-carbonyl)pyridin-2-yl)-5-hydroxy-1H-pyrazol-4-yl)-3-methylbenzonitrile], the “PHD Inhibition (pIC50)” value in experiment [1] stood at 8.06. Besides, the EC50 in experiment [2] is 1 µM.

`Cc1cc(C#N)ccc1-c1cnn(-c2ccc(C(=O)N3CCC[C@H](N(C)C)C3)cn2)c1O` [Example 376, (S)-4-(1-(5-(3-(dimethylamino)piperidine-1-carbonyl)pyridin-2-yl)-5-hydroxy-1H-pyrazol-4-yl)-3-methylbenzonitrile]: the “PHD Inhibition (pIC50)” value in experiment [1] was found to be 7.61. Further, the EC50 in experiment [2] is 0.891 µM.

Take `Cc1cc(C#N)ccc1-c1cnn(-c2ccc(C(=O)N3CCN(C)C(C)(C)C3)cn2)c1O` [Example 377, 4-(5-hydroxy-1-(5-(3,3,4-trimethylpiperazine-1-carbonyl)pyridin-2-yl)-1H-pyrazol-4-yl)-3-methylbenzonitrile]: in experiment [1], the “PHD Inhibition (pIC50)” value stood at 8.44. Also, the EC50 in experiment [2] is 0.813 µM.

In the case of `CCN1CCN(C(=O)c2ccc(-n3ncc(-c4ccc(C#N)cc4C)c3O)nc2)CC1(C)C` [Example 378, 4-(1-(5-(4-ethyl-3,3-dimethylpiperazine-1-carbonyl)pyridin-2-yl)-5-hydroxy-1H-pyrazol-4-yl)-3-methylbenzonitrile], the “PHD Inhibition (pIC50)” value in experiment [1] stood at 8.21. The EC50 in experiment [2] is 1.29 µM.

In the case of `Cc1cc(C#N)ccc1-c1cnn(-c2ccc(C(=O)N3CCN(C(C)C)[C@H](C)C3)cn2)c1O` [Example 379, (R)-4-(5-hydroxy-1-(5-(4-isopropyl-3-methylpiperazine-1-carbonyl)pyridin-2-yl)-1H-pyrazol-4-yl)-3-methylbenzonitrile], the “PHD Inhibition (pIC50)” value in experiment [1] is on record as 8.20. For the same compound, the EC50 in experiment [2] was 0.794 µM.

For `CCN(CC)C1CCCN(C(=O)c2ccc(-n3ncc(-c4ccc(C#N)cc4C)c3O)nc2)C1` (centres unmarked) [Example 380, 4-(1-(5-(3-(diethylamino)piperidine-1-carbonyl)pyridin-2-yl)-5-hydroxy-1H-pyrazol-4-yl)-3-methylbenzonitrile], in experiment [1], the “PHD Inhibition (pIC50)” value is given as 8.17. Besides, the EC50 in experiment [2] was 0.575 µM.

Regarding `Cc1cc(C#N)ccc1-c1cnn(-c2ccc(C(=O)N3CCC[C@H](N4CCCC4)C3)cn2)c1O` [Example 381, (S)-4-(5-hydroxy-1-(5-(3-(pyrrolidin-1-yl)piperidine-1-carbonyl)pyridin-2-yl)-1H-pyrazol-4-yl)-3-methylbenzonitrile], the “PHD Inhibition (pIC50)” value in experiment [1] came to 7.94. Besides, the EC50 in experiment [2] was 1.07 µM.

Take `CCN(C)[C@@H]1CCCN(C(=O)c2ccc(-n3ncc(-c4ccc(C#N)cc4C)c3O)nc2)C1` [Example 382, (R)-4-(1-(5-(3-(ethyl(methyl)amino)piperidine-1-carbonyl)pyridin-2-yl)-5-hydroxy-1H-pyrazol-4-yl)-3-methylbenzonitrile]: in experiment [1], the “PHD Inhibition (pIC50)” value came to 8.00. Besides, in experiment [2], the EC50 is 0.977 µM.

On to `Cc1cc(C#N)ccc1-c1cnn(-c2ccc(C(=O)N3CCC[C@@H](N(C)C4CC4)C3)cn2)c1O` [Example 383, (R)-4-(1-(5-(3-(cyclopropyl(methyl)amino)piperidine-1-carbonyl)pyridin-2-yl)-5-hydroxy-1H-pyrazol-4-yl)-3-methylbenzonitrile], for which the “PHD Inhibition (pIC50)” value in experiment [1] was determined as 8.28. Also, the EC50 in experiment [2] was 1.1 µM.

On to `CCN(C)[C@H]1CCCN(C(=O)c2ccc(-n3ncc(-c4ccc(C#N)cc4C)c3O)nc2)C1` [Example 384, (S)-4-(1-(5-(3-(ethyl(methyl)amino)piperidine-1-carbonyl)pyridin-2-yl)-5-hydroxy-1H-pyrazol-4-yl)-3-methylbenzonitrile], for which the “PHD Inhibition (pIC50)” value in experiment [1] stood at 7.93. Besides, the EC50 in experiment [2] is 1.51 µM.

Consider `Cc1cc(C#N)ccc1-c1cnn(-c2ccc(C(=O)N3CCN(C)C[C@H]3C)cn2)c1O` [Example 385, (R)-4-(1-(5-(2,4-dimethylpiperazine-1-carbonyl)pyridin-2-yl)-5-hydroxy-1H-pyrazol-4-yl)-3-methylbenzonitrile], for which the “PHD Inhibition (pIC50)” value in experiment [1] turned out to be 8.18. In experiment [2], the EC50 is 0.955 µM.

On to `Cc1cc(C#N)ccc1-c1cnn(-c2ccc(C(=O)N3CCC[C@@H](N4CCCC4)C3)cn2)c1O` [Example 387, (R)-4-(5-hydroxy-1-(5-(3-(pyrrolidin-1l-yl)piperidine-1-carbonyl)pyridin-2-yl)-1H-pyrazol-4-yl)-3-methylbenzonitrile], for which, in experiment [1], the “PHD Inhibition (pIC50)” value worked out at 7.91. Besides, the EC50 in experiment [2] is 0.871 µM.

Consider `CCN1CCN(C(=O)c2ccc(-n3ncc(-c4ccc(C#N)cc4C)c3O)nc2)C[C@H]1C` [Example 388, (R)-4-(1-(5-(4-ethyl-3-methylpiperazine-1-carbonyl)pyridin-2-yl)-5-hydroxy-1H-pyrazol-4-yl)-3-methylbenzonitrile], for which the “PHD Inhibition (pIC50)” value in experiment [1] is 8.25. Further, the EC50 in experiment [2] is 0.513 µM.

With `Cc1cc(C#N)ccc1-c1cnn(-c2ccc(C(=O)N3CCN(C4CC4)[C@@H](C)C3)cn2)c1O` [Example 389, (S)-4-(1-(5-(4-cyclopropyl-3-methylpiperazine-1-carbonyl)pyridin-2-yl)-5-hydroxy-1H-pyrazol-4-yl)-3-methylbenzonitrile], the “PHD Inhibition (pIC50)” value in experiment [1] was 8.20. In addition, the EC50 in experiment [2] is 1.15 µM.

Take `Cc1cc(C#N)ccc1-c1cnn(-c2ccc(C(=O)N3CCN(C)C4(CC4)C3)cn2)c1O` [Example 390, 4-(5-hydroxy-1-(5-(4-methyl-4,7-diazaspiro[2.5]octane-7-carbonyl)pyridin-2-yl)-1H-pyrazol-4-yl)-3-methylbenzonitrile]: the “PHD Inhibition (pIC50)” value in experiment [1] is reported as 8.29. Besides, the EC50 in experiment [2] was 0.955 µM.

`Cc1cc(C#N)ccc1-c1cnn(-c2ccc(C(=O)N3CCN(C)[C@H](C)C3)cn2)c1O` [Example 392, (R)-4-(1-(5-(3,4-dimethylpiperazine-1-carbonyl)pyridin-2-yl)-5-hydroxy-1H-pyrazol-4-yl)-3-methylbenzonitrile]: in experiment [1], the “PHD Inhibition (pIC50)” value worked out at 8.20. The EC50 in experiment [2] was 0.355 µM.

Take `Cc1cc(C#N)ccc1-c1cnn(-c2ccc(C(=O)N3CCN(C(C)C)[C@@H](C)C3)cn2)c1O` [Example 393, (S)-4-(5-hydroxy-1-(5-(4-isopropyl-3-methylpiperazine-1-carbonyl)pyridin-2-yl)-1H-pyrazol-4-yl)-3-methylbenzonitrile]: in experiment [1] (read-out: PHD Inhibition (pIC50) (converted)), the IC50 is 0.0138 µM. The EC50 in experiment [2] is 1.45 µM.

With `Cc1cc(C#N)c(F)cc1-c1cnn(-c2ccc(C(=O)N3CC(N(C)C)C3)cn2)c1O` [Example 394, 4-(1-(5-(3-(dimethylamino)azetidine-1-carbonyl)pyridin-2-yl)-5-hydroxy-1H-pyrazol-4-yl)-2-fluoro-5-methylbenzonitrile], the “PHD Inhibition (pIC50)” value in experiment [1] came to 7.88. In addition, the EC50 in experiment [2] is 2.82 µM.

In the case of `CCN1CCN(C(=O)c2ccc(-n3ncc(-c4cc(F)c(C#N)cc4C)c3O)nc2)C[C@H]1C` [Example 395, (R)-4-(1-(5-(4-ethyl-3-methylpiperazine-1-carbonyl)pyridin-2-yl)-5-hydroxy-1H-pyrazol-4-yl)-2-fluoro-5-methylbenzonitrile], the “PHD Inhibition (pIC50)” value in experiment [1] is given as 8.48. Moreover, in experiment [2], the EC50 was 2.63 µM.

With `Cc1cc(C#N)c(F)cc1-c1cnn(-c2ccc(C(=O)N3CCN(C)CC3)cn2)c1O` [Example 396, 2-fluoro-4-(5-hydroxy-1-(5-(4-methylpiperazine-1-carbonyl)pyridin-2-yl)-1H-pyrazol-4-yl)-5-methylbenzonitrile], the “PHD Inhibition (pIC50)” value in experiment [1] was 8.59. Besides, the EC50 in experiment [2] was 2.09 µM.

As to `CCN1CCN(C(=O)c2ccc(-n3ncc(-c4cc(F)c(C#N)cc4C)c3O)nc2)C[C@@H]1C` [Example 397, (S)-4-(1-(5-(4-ethyl-3-methylpiperazine-1-carbonyl)pyridin-2-yl)-5-hydroxy-1H-pyrazol-4-yl)-2-fluoro-5-methylbenzonitrile], the “PHD Inhibition (pIC50)” value in experiment [1] stood at 8.52. In addition, the EC50 in experiment [2] was 1.62 µM.

Turning to `Cc1cc(C#N)c(F)cc1-c1cnn(-c2ccc(C(=O)N3CCOCC3)cn2)c1O` [Example 398, 2-fluoro-4-(5-hydroxy-1-(5-(morpholine-4-carbonyl)pyridin-2-yl)-1H-pyrazol-4-yl)-5-methylbenzonitrile], the “PHD Inhibition (pIC50)” value in experiment [1] worked out at 8.65. Moreover, the EC50 in experiment [2] was 1.95 µM.
